Test results reported in US6875760B2 (Novo Nordisk A/S, priority 1999, dated 2005).

Key:
[1] = biological target: T1, cloned human glucagon receptor (Homo sapiens, UniProt P47871); experiment: Glucagon Binding Assay (I); conditions: for IC50: plasma membranes of BHK cells expressing the receptor, 125I-glucagon tracer, read-out: Glu Bd Assay (I) IC50
T1 construct: expressed in transfected cells; plasma membrane preparation
Protocol: Binding of compounds to the glucagon receptor was determined in a competition binding assay using the cloned human glucagon receptor.
Receptor binding was assayed using cloned human receptor (Lok et al., Gene 140, 203-209 (1994)). The receptor inserted in the pLJ6′ expression vector using EcoRI/SSt1 restriction sites (Lok et al.) was expressed in a baby hamster kidney cell line (A3 BHK 570-25).
Plasma membranes were prepared by growing cells to confluence, detaching them from the surface and resuspending the cells in cold buffer (10 mM tris/HCl, pH 7.4 containing 30 mM NaCl, 1 mM dithiothreitol, 5 mg/L leupeptin (Sigma), 5 mg/L pepstatin (Sigma), 100 mg/L bacitracin (Sigma) and 15 mg/L recombinant aprotinin (Novo Nordisk A/S)), homogenization by two 10-s bursts using a Polytron PT 10-35 homogenizer (Kinematica), and centrifugation upon a layer of 41 w/v % sucrose at 95.000×g for 75 min. The white band located between the two layers was diluted in buffer and centrifuged at 40.000×g for 45 min. The precipitate containing the plasma membranes was suspended in buffer and stored at −80° C. until use. Glucagon was iodinated according to the chloramine T method (Hunter and Greenwood, Nature 194, 495 (1962)) and purified using anion exchange chromatography (Jørgensen et al., Hormone and Metab. Res. 4, 223-224 (1972). The specific activity was 460 μCi/μg on the day of iodination. Tracer was stored at −18° C. in aliquots and were used immediately after thawing.
Binding assays were carried out in triplicate in filter microtiter plates (MADV N65, Millipore). The buffer used in this assay was 50 mM HEPES, 5 mM EGTA, 5 mM MgCl2, 0.005% tween 20, pH 7.4. Glucagon was dissolved in 0.05 M HCl, added an equal amount (w/w) of HSA and freeze-dried. On the day of use, it was dissolved in water and diluted in buffer to the desired concentrations.
Test compounds were dissolved and diluted in DMSO. 140 μL buffer, 25 μL glucagon or buffer, and 10 μL DMSO or test compound were added to each well. Tracer (50.000 cpm) was diluted in buffer and 25 μL were added to each well. 1-4 μg freshly thawed plasma membrane protein diluted in buffer was then added in aliquots of 25 μL to each well. Plates were incubated at 30° C. for 2 hours. Non-specific binding was determined with 10^−6 M of glucagon. Bound tracer and unbound tracer were then separated by vacuum filtration (Millipore vacuum manifold). The plates were washed with 2×100 μL buffer/well. The plates were air dried for a couple of hours, whereupon the filters were separated from the plates using a Millipore Puncher. The filters were counted in a gamma counter.

[2] = biological target: T1, cloned human glucagon receptor; experiment: Glucagon Binding Assay (II); conditions: plasma membranes of BHK cells expressing the receptor; read-out: Glu Bd Assay (II) IC50
[3] = biological target: T2, human glucagon receptor (Homo sapiens, UniProt P47871); experiment: Glucagon Binding Assay (III); conditions: BHK cell membranes, WGA SPA beads, 125I-glucagon; read-out: Glu Bd Assay (III) IC50
T2 construct: expressed in transfected cells; host or cells: BHK (baby hamster kidney) cells
T2 sequence (P47871 26-477): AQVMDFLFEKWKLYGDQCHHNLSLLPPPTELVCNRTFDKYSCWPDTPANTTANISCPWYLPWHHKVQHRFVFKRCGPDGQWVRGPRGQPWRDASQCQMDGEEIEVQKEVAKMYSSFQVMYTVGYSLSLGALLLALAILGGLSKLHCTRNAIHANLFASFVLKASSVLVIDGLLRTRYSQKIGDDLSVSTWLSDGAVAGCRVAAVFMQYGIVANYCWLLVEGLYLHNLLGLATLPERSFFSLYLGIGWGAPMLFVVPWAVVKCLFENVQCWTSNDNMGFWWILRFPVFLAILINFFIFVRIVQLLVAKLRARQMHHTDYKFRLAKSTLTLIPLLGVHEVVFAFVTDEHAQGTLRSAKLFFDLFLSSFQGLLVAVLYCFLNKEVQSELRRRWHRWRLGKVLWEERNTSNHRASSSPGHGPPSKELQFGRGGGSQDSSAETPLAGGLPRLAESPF
Summary of the method: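 Membranes from BHK cells transfected with the human receptor, prepared at 4 °C, were used in a WGA-bead scintillation proximity binding format. Plates were shaken for 4 hours, left to settle 8–48 hours and then counted. Non-specific binding was defined with 500 nM glucagon.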

T1 sequence (P47871 26-477): as above

O=C(O)CCNC(=O)c1ccc(CN(C(=O)Nc2ccc(OC(F)(F)F)cc2)C2CCCCC2)cc1
IC50 [1]: 2.7 µM

COC(C)(C)C1CCC(N(Cc2ccc(C(=O)NCCC(=O)O)cc2)C(=O)Nc2ccc(OC(F)(F)F)cc2)CC1 (centres unmarked)
IC50 [1]: 1.28 µM

O=C(O)CCNC(=O)c1ccc(CN(C(=O)Nc2cc(Cl)cc(Cl)c2)C2CCC3(CC2)SCCS3)cc1
IC50 [1]: 1.34 µM

O=C(O)CCNC(=O)c1ccc(CN(CC(c2ccccc2)c2ccccc2)C(=O)c2csc3ccc(Cl)cc23)cc1 [Example 1, 3-(4-{[N-(5-Chlorobenzo[b]thiophen-3-carbonyl)-N-(2,2-diphenylethyl)amino]methyl}benzoylamino)propionic acid]
IC50 [1]: 0.12 µM

O=C(O)CCNC(=O)c1ccc(CN(CCc2ccc(Cl)c(Cl)c2)C(=O)c2csc3ccc(Cl)cc23)cc1 [Example 2, 3-(4-{[N-(5-Chlorobenzo[b]thiophen-3-carbonyl)-N-(3,4-dichlorophenylethyl)amino]methyl}benzoylamino)propionic acid]
IC50 [1]: 1.3 µM

CC(C)(C)C1CCC(N(Cc2ccc(C(=O)NCCC(=O)O)cc2)C(=O)Cc2csc3ccccc23)CC1 (centres unmarked) [Example 3, 3-(4-{[N-(2-Benzo[b]thiophen-3-yl-acetyl)-N-(4-tert-butylcyclohexyl)amino]methyl}benzoylamino)propionic acid]
Glu Bd Assay (I) Effect, 100-Residual binding (%) at 1 μM [1]: 26.2%

CC(C)(C)C1CCC(N(Cc2ccc(C(=O)NCCC(=O)O)cc2)C(=O)c2cc3ccccc3s2)CC1 (centres unmarked) [Example 4, 3-(4-{[N-(Benzo[b]thiophen-2-carbonyl)-N-(4-tert-butylcyclohexyl)amino]methyl}benzoylamino)propionic acid]
Glu Bd Assay (I) Effect, 100-Residual binding (%) at 1 μM [1]: 28.5%

CCCCC(CC)CN(Cc1ccc(C(=O)NCCC(=O)O)cc1)C(=O)/C=C/c1c(Cl)cccc1Cl (centres unmarked) [Example 5, 3-(4-{[N-[3-(2,6-Dichlorophenyl)acryloyl]-N-(2-ethylhexyl)amino]methyl}benzoylamino)propionic acid]
Glu Bd Assay (I) Effect, 100-Residual binding (%) at 1 μM [1]: 31.1% | IC50 [1]: 0.8 µM

CC(C)(C)c1ccc(CN(Cc2ccc(C(=O)NCCC(=O)O)cc2)C(=O)/C=C/c2c(Cl)cccc2Cl)cc1 [Example 6, 3-(4-{[N-[3-(2,6-Dichlorophenyl)acryloyl]-N-(4-tert-butylbenzyl)amino]methyl}benzoylamino)propionic acid]
Glu Bd Assay (I) Effect, 100-Residual binding (%) at 1 μM [1]: 29.5% | IC50 [1]: 1.2 µM

CC(C)(C)c1ccc(CN(Cc2ccc(C(=O)NCCC(=O)O)cc2)C(=O)c2cc3ccccc3s2)cc1 [Example 7, 3-(4-{[N-(Benzo[b]thiophen-2-carbonyl)-N-(4-tert-butylbenzyl)amino]methyl}benzoylamino)propionic acid]
Glu Bd Assay (I) Effect, 100-Residual binding (%) at 1 μM [1]: 30.4% | IC50 [1]: 0.845 µM

O=C(O)CCNC(=O)c1ccc(CN(CCC(c2ccccc2)c2ccccc2)C(=O)c2ccc(Cl)cc2)cc1 [Example 8, 3-(4-{[N-(4-Chlorobenzoyl)-N-(3,3-diphenylpropyl)amino]methyl}benzoylamino)propionic acid]
Glu Bd Assay (I) Effect, 100-Residual binding (%) at 1 μM [1]: 37.8% | IC50 [1]: 0.675 µM

O=C(O)CCNC(=O)c1cccc(CN(CC(c2ccccc2)c2ccccc2)C(=O)c2csc3ccc(Cl)cc23)c1 [Example 9, 3-(3-{[N-(5-Chlorobenzo[b]thiophene-3-carbonyl)-N-(2,2-diphenylethyl)amino]methyl}benzoylamino)propionic acid]
Glu Bd Assay (I) Effect, 100-Residual binding (%) ([1]; at 500 nM): 56.4% (at 500

O=C(Nc1nn[nH]n1)c1ccc(CN(C(=O)Nc2ccc(Cl)c(C(F)(F)F)c2)c2ccc(C3CCCCC3)cc2)cc1 [Example 282, 4-[3-(4-Chloro-3-trifluoromethylphenyl)-1-(4-cyclohexylphenyl)ureidomethyl]-N-(2H-tetrazol-5-yl)benzamide]
IC50 [2]: 0.003 µM | IC50 [3]: 0.021 µM

CC(C)(C)C1CCC(N(Cc2ccc(C(=O)Nc3nn[nH]n3)cc2)C(=O)C=Cc2c(Cl)cccc2Cl)CC1 (centres unmarked) [Example 477, 4-({(4-tert-Butylcyclohexyl)-[3-(2,6-dichlorophenyl)acryloyl]amino}methyl)-N-(2H-tetrazol-5-yl)benzamide]
IC50 [2]: 0.224 µM | IC50 [3]: 0.464 µM
